Values after ≈ are worked out from the molar mass of the structure shown. Blank lines part the entries; values can stand above or below the molecule they belong to.
What was measured:
physchem [1] = conditions: buffer, pH 7.4
in vivo = conditions: Wistar Han, rat, urine, iv, 1 mg/kg
physchem [2] = experiment: physchem
[3] = AUC (0 to 24 hrs) in cynomolgus monkey at 1 mg/kg, iv via bolus dose measured up to 24 hrs post dose by LC-MS/MS analysis; format: ADME, organism-based, Macaca fascicularis; design: time < 24 hr, dose 1 mg/kg, route intravenous; conditions: in vivo
[4] = rat, in vivo, iv, 1 mg/kg, 24 h
[5] = Volume of distribution at steady state in Wistar Han rat at 1 mg/kg, iv via bolus dose measured up to 24 hrs post dose by LC-MS/MS analysis; format: ADME, organism-based; conditions: in vivo, read-out: Vdss
[6] = Oral bioavailability in cynomolgus monkey at 3 mg/kg via gavage measured up to 24 hrs post dose by LC-MS/MS analysis; format: ADME, organism-based, Macaca fascicularis; conditions: in vivo
[7] = Drug excretion in cynomolgus monkey urine assessed as compound recovered at 1 mg/kg, iv measured over 24 hrs by LC/MS analysis; format: ADME, organism-based, Macaca fascicularis; conditions: read-out: Drug recovery
Rattus norvegicus [8] = experiment: (§1) Oral bioavailability in Wistar Han rat at 3 mg/kg via gavage measured up to 24 hrs post dose by LC-MS/MS analysis; format: ADME, organism-based; conditions: in vivo, 24 h
[9] = Tmax in Wistar Han rat at 3 mg/kg via oral gavage by LC-MS/MS analysis; format: ADME, organism-based; conditions: in vivo
[10] = AUC (0 to 24 hrs) in cynomolgus monkey at 3 mg/kg via oral gavage measured up to 24 hrs post dose by LC-MS/MS analysis; format: ADME, organism-based, Macaca fascicularis; design: time < 24 hr, dose 3 mg/kg, route oral; conditions: in vivo
Rattus norvegicus [11] = experiment: (§2) AUC (0 to 24 hrs) in Wistar Han rat at 1 mg/kg, iv via bolus dose measured up to 24 hrs post dose by LC-MS/MS analysis; format: ADME, organism-based; design: time < 24 hr, dose 1 mg/kg, route intravenous; conditions: in vivo, 24 h
Rattus norvegicus [12] = experiment: (§3) AUC (0 to 24 hrs) in Wistar Han rat at 3 mg/kg via oral gavage measured up to 24 hrs post dose by LC-MS/MS analysis; format: ADME, organism-based; design: dose 3 mg/kg, time < 24 hr, route oral; conditions: in vivo, 24 h
[13] = Cmax in Wistar Han rat at 3 mg/kg via oral gavage measured up to 24 hrs post dose by LC-MS/MS analysis; format: ADME, organism-based; design: dose 3 mg/kg, route oral; conditions: in vivo
[14] = Thermodynamic solubility of the compound in sodium phosphate buffer at pH 7.4 after 24 hrs by nitrogen detection method; format: physicochemical; conditions: read-out: Therm_solubility
[15] = Cmax in cynomolgus monkey at 3 mg/kg via oral gavage measured up to 24 hrs post dose by LC-MS/MS analysis; format: ADME, organism-based, Macaca fascicularis; design: dose 3 mg/kg, route oral; conditions: in vivo
[16] = Volume of distribution at steady state in cynomolgus monkey at 1 mg/kg, iv via bolus dose measured up to 24 hrs post dose by LC-MS/MS analysis; format: ADME, organism-based, Macaca fascicularis; conditions: in vivo, read-out: Vdss
[17] = Tmax in cynomolgus monkey at 3 mg/kg via oral gavage by LC-MS/MS analysis; format: ADME, organism-based, Macaca fascicularis; conditions: in vivo
[18] = as §1; format: ADME, organism-based; conditions: Wistar Han, in vivo
[19] = as §2; format: ADME, organism-based; design: time < 24 hr, dose 1 mg/kg, route intravenous; conditions: Wistar Han, in vivo
[20] = as §3; format: ADME, organism-based; design: dose 3 mg/kg, time < 24 hr, route oral; conditions: Wistar Han, in vivo

SMILES: O=C(O)c1c[nH]c2cc(Cl)c(-c3ccc(OCCCN4CCOCC4)cc3)cc12
- logD (physchem [1]): 1.8
- dose excreted at 24 h (in vivo): 12%
- pKa (physchem [2]): 5.4 to 7.1

SMILES: O=C(O)c1c[nH]c2cc(Cl)c(-c3ccc(OCCO)cc3)cc12
- logD (physchem [1]): 1.1
- dose excreted at 24 h (in vivo): 10%
- pKa (physchem [2]): 4.8

SMILES: N#Cc1cc2[nH]cc(C(=O)O)c2cc1-c1ccc(C2(O)CCC2)cc1
- logD (physchem [1]): 1.1
- pKa (physchem [2]): 4.6

SMILES: O=C(O)c1c[nH]c2cc(F)c(-c3ccc(C4(O)CCC4)cc3)c(F)c12
- logD (physchem [1]): 1.3
- dose excreted at 24 h (in vivo): 10.7%
- pKa (physchem [2]): 4.9

SMILES: O=C(O)c1c[nH]c2cc(Cl)c(-c3ccc(C4CCCCO4)cc3)cc12 (stereo unspecified)
- logD (physchem [1]): 2.8
- pKa (physchem [2]): 4.9

SMILES: COCCOc1ccc(-c2cc3c(C(=O)O)c[nH]c3cc2Cl)cc1
- logD (physchem [1]): 1.8
- pKa (physchem [2]): 5

SMILES: O=C(O)c1c[nH]c2cc(F)c(-c3ccc([C@H]4CCCCO4)cc3)c(F)c12
- logD (physchem [1]): 2

SMILES: O=C(O)c1c[nH]c2cc(F)c(-c3ccc([C@@H]4CCCCO4)cc3)c(F)c12
- AUC(0-t) at 24 h [3]: 35900 ng·h/mL
- Vd [5]: 0.31 L/kg
- logD (physchem [1]): 1.9
- bioavailability [6]: 85%
- dose excreted at 24 h (in vivo): 1.6%
- dose excreted at 24 h [7]: 2.2%
- bioavailability [18]: 26%
- pKa (physchem [2]): 5
- Tmax [9]: 2.7 h
- AUC(0-t) at 24 h [10]: 91600 ng·h/mL
- AUC(0-t) at 24 h [19]: 16400 ng·h/mL
- AUC(0-t) at 24 h [20]: 12800 ng·h/mL
- Cmax [13]: 1890 ng/mL
- solubility thermodynamic at 24 h [14]: 14 µM (≈ 5 µg/mL)
- Cmax [15]: 8180 ng/mL
- Vd [16]: 0.3 L/kg
- Tmax [17]: 2 h

Second part, the molecule after the results:

- AUC(0-t) at 24 h [3]: 15500 ng·h/mL
- Drug recovery [4]: 1 ng/mL
- Vd [5]: 0.1 L/kg
- logD (physchem [1]): 2.3
- bioavailability [6]: 67%
- dose excreted at 24 h [7]: < 1%
- F (Rattus norvegicus [8]): 52%
- pKa (physchem [2]): 2.6 to 4.9
- Tmax [9]: 5.5 h
- AUC(0-t) at 24 h [10]: 31200 ng·h/mL
- AUC (Rattus norvegicus [11]): 254000 ng·h/mL
- AUC (Rattus norvegicus [12]): 160000 ng·h/mL
- Cmax [13]: 10200 ng/mL
- solubility thermodynamic at 24 h [14]: 120 µM (≈ 41.5 µg/mL)
- Cmax [15]: 2540 ng/mL
- Vd [16]: 0.46 L/kg
- Tmax [17]: 1.5 h
SMILES: COc1nc(N(C)C)ccc1-c1cc2c(C(=O)O)c[nH]c2cc1Cl

- logD (physchem [1]): 2.1
- pKa (physchem [2]): 4.8
SMILES: COc1ccc(-c2cc3c(C(=O)O)c[nH]c3cc2Cl)c(OC)n1

- logD (physchem [1]): 1.8
- pKa (physchem [2]): 2.4 to 4.9
SMILES: COc1ccc(-c2cc3c(C(=O)O)c[nH]c3cc2Cl)cn1

- logD (physchem [1]): 1.7
- pKa (physchem [2]): 4.7 to 6.2
SMILES: CN(C)c1ccc(-c2cc3c(C(=O)O)c[nH]c3cc2Cl)cn1

Source: ChEMBL document CHEMBL4020835, “Optimization of Metabolic and Renal Clearance in a Series of Indole Acid Direct Activators of 5'-Adenosine Monophosphate-Activated Protein Kinase (AMPK)” (J Med Chem, 2018)
